Source: the supplement of paper PMC11208160

Test: recombinant barcode read abundance after kanamycin selection (control-corrected) (log10(CPM+1)); higher = more efficient recombination; sequences stand for … in AGTGCAGAGAAAATCGGCCAGTTTTCTCTGCCTGCAGTCCGCATGCCGT…AGATTTATGCAGCGGACTGCCTTTCTCCCAAAGTGATAAACCGGACAGTATCATGGACCGGTTTTCCCGGTAATCCGTATTTGCAAGGTTGGTTTCACT; site = the 11-nt target
Description: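 Pooled E. coli target-specificity screen for the IS621 bridge recombinase. Each library plasmid pairs an 11-nt target (CT core) with a bridge RNA whose target-binding loop (9-nt LTG + 4-nt RTG) is reprogrammed; the rest of the 177-nt WT IS621 bridge RNA scaffold is fixed. The plasmid is co-electroporated with a WT donor plasmid; recombinase is induced with 0.1 mM IPTG and recombinants are selected on kanamycin. Recombinant barcodes are sequenced, converted to CPM, averaged over two biological replicates and corrected by the unselected control CPM. Molecule = full bridge RNA written as DNA: LTG = specificity nt 1-9, RTG = reverse complement of specificity nt 8-11, in the WT scaffold.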
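Note: IS621 recombinase and bridge RNA in Escherichia coli cells.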

Sequence | recombinant barcode read abundance (log10)
AGCAACACTTGGGTTCTAACCTGTTGCAG (site AGCAACACTCT) | 0.467
AGCAACACTTGGGTTCTAACCTGTTGCAG (site TCTCGTCCTTA) | 0.0984
AGCAATTCTTGGGTTCTAACCTGTTGCCT (site AGAAATTCTAG) | 0.144
AGCAATTCTTGGGTTCTAACCTGTTGCCT (site AGCAATTCTAG) | 0.165
AGCAATTCTTGGGTTCTAACCTGTTGCCT (site AGGAATTCTAG) | 0.132
AGCAATTCTTGGGTTCTAACCTGTTGCCT (site AGTAATTCTAG) | 0.277
AGCAGCTCTTGGGTTCTAACCTGTTGCCT (site AGCAGCTCTAG) | 1.7
AGCAGCTCTTGGGTTCTAACCTGTTGCCT (site AGGAGCGCTAG) | 0.0136
AGCAGGACTTGGGTTCTAACCTGTTGCCG (site AGCACGACTCA) | 0.0667
AGCAGGACTTGGGTTCTAACCTGTTGCCG (site AGCAGGACTCG) | 1.17
AGCAGGGCTTGGGTTCTAACCTGTTGCAG (site AGCAGGGCTCT) | 2.14
AGCAGGGCTTGGGTTCTAACCTGTTGCAG (site AGTAGGACTCT) | 0.184
AGCAGGTCTTGGGTTCTAACCTGTTGCCT (site AACAGGTCTAG) | 0.109
AGCAGGTCTTGGGTTCTAACCTGTTGCCT (site ACCAGGTCTAG) | 0.234
AGCAGGTCTTGGGTTCTAACCTGTTGCCT (site AGCAGGTCTAG) | 1.09
AGCAGGTCTTGGGTTCTAACCTGTTGCCT (site ATCAGGTCTAG) | 0.0118
AGCAGTCCTTGGGTTCTAACCTGTTGCGT (site AGCAGTCCTAC) | 1.47
AGCAGTCCTTGGGTTCTAACCTGTTGCGT (site AGGAGTCCTAC) | 0.188

Sequence | recombinant barcode read abundance (log10)
AGCAGTCCTTGGGTTCTAACCTGTTGCTG (site AGCAGTCCTCA) | 0.802
AGCAGTCCTTGGGTTCTAACCTGTTGCTG (site TCCAGTCCTCA) | 0.0256
AGCCACACTTGGGTTCTAACCTGTTGCCT (site AGCCACACTAG) | 0.933
AGCCACACTTGGGTTCTAACCTGTTGCCT (site AGCCACCCTAG) | 0
AGCCACACTTGGGTTCTAACCTGTTGCCT (site AGCCACGCTAG) | 0.374
AGCCACACTTGGGTTCTAACCTGTTGCCT (site AGCCACTCTAG) | 0.456
AGCCACACTTGGGTTCTAACCTGTTGCGT (site AGCCACACTAC) | 0.948
AGCCACACTTGGGTTCTAACCTGTTGCGT (site TGCCAGACTAC) | 0.183
AGCCCTCCTTGGGTTCTAACCTGTTGCTT (site AGCCCTCCTAA) | 0.518
AGCCCTCCTTGGGTTCTAACCTGTTGCTT (site AGCCCTCCTCA) | 0.667
AGCCCTCCTTGGGTTCTAACCTGTTGCTT (site AGCCCTCCTGA) | 0.038
AGCCCTCCTTGGGTTCTAACCTGTTGCTT (site AGCCCTCCTTA) | 0.0347
AGCCTCCCTTGGGTTCTAACCTGTTGCCT (site AGACTCCCTAG) | 0.089
AGCCTCCCTTGGGTTCTAACCTGTTGCCT (site AGCCTCCCTAG) | 0.474
AGCCTCCCTTGGGTTCTAACCTGTTGCCT (site AGGCTCCCTAG) | 0.0381
AGCCTCCCTTGGGTTCTAACCTGTTGCCT (site AGTCTCCCTAG) | 0.578
AGCCTGACTTGGGTTCTAACCTGTTGCCT (site AGCCTGACTAG) | 0.741
AGCCTGACTTGGGTTCTAACCTGTTGCCT (site AGCCTGCCTAG) | 0.313
